From US20110111016A1, “NON-DNA BASE-CONTAINING POLYNUCLEOTIDE COMPOSITIONS AND THEIR USE FOR THE MODULATION OF IMMUNE RESPONSES” (priority 2009, published 2011)

Tests used:
Format in all cases: cell-based
human TLR2 = biological target: T1, human TLR2 (Homo sapiens, UniProt O60603); test: NF-κB activation (secreted alkaline phosphatase reporter) in HEK293 cells expressing human TLR2; conditions: HEK293/hTLR2 cell line; polynucleotide final concentration 10 μg/mL; 16-20 hours
T1 construct: host or cells: HEK293
Method: (§1) Toll-like receptors (TLR) are known to interact with a number of natural and synthetic molecules that can function as immune adjuvants. Examples of these molecules are Poly (I:C) polynucleotides, lipopolysaccharide and CpG-containing polynucleotides. The interaction of non-DNA base-containing polynucleotides (SEQ ID NOs: 1-3) to interact with TLR and induce down-stream signaling was tested by assessing NF-κB activation in HEK293 cells expressing human TLR2, 3, 4, 5, 7, 8 and 9. TLR engagement was determined by measurement of secreted alkaline phosphatase, under the control of a reporter inducible by NF-κB. Appropriate positive controls were used for each TLR. The non-DNA base-containing polynucleotides were dissolved in sterile water at a concentration of 100 μg/mL, and used at a final concentration of 10 μg/mL. HEK293 cells containing the appropriate TLR and NF-κB reporting system (InvivoGen, San Diego, Calif., USA) were placed in wells of 96 well plates (25,000-50,000 cells, in a final volume of 200 μL medium designed for the detection of NF-κB induced secreted alkaline phosphatase expression), and incubated with non-DNA base-containing polynucleotides or positive controls for 16-20 hours. TLR activating activity was determined by measurement of absorbance at 650 nm wavelength using a Coulter AD340C absorbance detector. The results shown are expressed as Optical Density (OD).

NF-κB control cells = test: NF-κB reporter control cells (secreted alkaline phosphatase); conditions: polynucleotide final concentration 10 μg/mL, 16-20 hours
Method: as §1

human PBMC = test: Induction of cytokines from human PBMC (ELISA cytokine capture assay); conditions: PBMC of 3 healthy adults, 48 h; increase two-fold that of background control; SEQ ID NOs 1-3 100 μg/mL, CpG 2006 and MCC 1-100 μg/mL, LPS 10 μg/mL
Text: A number of immune adjuvants are known to be capable of eliciting cytokines from human PBMC cells. Examples of such adjuvants are alum, lipopolysaccharide, monophosphoryl lipid A, CpG-containing polynucleotides and non-CpG-containing ODN's, as well as mycobacterial cell wall-DNA complex (MCC). […] PBMC were isolated from whole blood using standard Ficoll-Paque (GE Healthcare Life Sciences, Baie d'Urfé, QC, Canada) gradient centrifugation, and placed in tissue culture plates at a concentration of 10^6 cells/mL (total volume: 1 mL in RPMI 1640 medium containing 10% heat-inactivated FBS, both from Wisent, St-Bruno, QC, Canada) and 50 μg/mL gentamycin sulfate (Sigma-Aldrich Canada, Oakville, ON, Canada). SEQ ID NOs: 1, 2 or 3 were added to give a final concentration of 100 μg/mL, and the cells were cultivated for 48 h. Cytokines (IL-1β, IL-2, IL-6, IL-10 and IL-12p40) in the supernatant at the end of incubation were determined by ELISA using a cytokine capture assay process (Biosource, Camarillo, Calif.). SEQ ID NO: 32 CpG 2006 ODN (1-100 μg/mL, 5′-[…]-3′, […]), MCC (1-100 μg/mL) and LPS (10 μg/mL) were used as positive controls.

T1 sequence (O60603 21-784): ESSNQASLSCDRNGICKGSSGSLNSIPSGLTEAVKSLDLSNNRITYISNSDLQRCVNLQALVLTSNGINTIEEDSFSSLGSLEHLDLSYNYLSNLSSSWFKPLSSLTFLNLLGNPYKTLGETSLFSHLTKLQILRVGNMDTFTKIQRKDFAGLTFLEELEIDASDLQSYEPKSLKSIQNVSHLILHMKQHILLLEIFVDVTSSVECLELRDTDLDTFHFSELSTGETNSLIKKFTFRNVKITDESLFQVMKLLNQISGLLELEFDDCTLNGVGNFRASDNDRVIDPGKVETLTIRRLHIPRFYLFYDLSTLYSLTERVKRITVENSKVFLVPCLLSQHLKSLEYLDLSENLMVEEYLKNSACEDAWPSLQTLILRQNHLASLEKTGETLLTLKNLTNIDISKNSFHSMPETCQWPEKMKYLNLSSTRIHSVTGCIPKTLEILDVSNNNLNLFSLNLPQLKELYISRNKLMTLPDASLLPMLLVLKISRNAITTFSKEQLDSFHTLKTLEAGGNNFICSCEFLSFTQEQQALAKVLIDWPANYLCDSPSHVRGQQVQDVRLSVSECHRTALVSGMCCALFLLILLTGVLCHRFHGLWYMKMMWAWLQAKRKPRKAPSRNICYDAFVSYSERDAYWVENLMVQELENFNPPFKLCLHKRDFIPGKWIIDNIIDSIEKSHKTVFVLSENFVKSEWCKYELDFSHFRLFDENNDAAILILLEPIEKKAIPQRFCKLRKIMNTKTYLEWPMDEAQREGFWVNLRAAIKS

Row | Substance | TLR activation, Optical Density at 650 nm, hTLR2 (human TLR2) | Optical Density at 650 nm, NF-κB control cells (NF-κB control cells) | Number of individuals responding, IL-1β (human PBMC) | Number of individuals responding, IL-2 (human PBMC) | Number of individuals responding, IL-6 (human PBMC) | Number of individuals responding, IL-10 (human PBMC) | Number of individuals responding, IL-12p40 (human PBMC)
1 | IIGTII [SEQ ID NO: 3] | 0.095 | 0.074 | 0/3 | 0/3 | 3/3 | 0/3 | 0/3
2 | NebGGTGNeb (DNA NGGTGN; Nebularine at both ends, sugar and linkages not given here, further chemistry not given here) [SEQ ID NO: 1, 5′-OH, 3′-OH non-DNA base-containing polynucleotide] | 0.093 | 0.078 | 3/3 | 0/3 | 3/3 | 0/3 | 3/3
3 | UUGTUU [SEQ ID NO: 2] | 0.095 | 0.076 | 0/3 | 0/3 | 1/3 | 0/3 | 3/3
